Measured values as given in patent US11286268B1, “EIF4E-inhibiting compounds and methods” (EFFECTOR THERAPEUTICS, INC., priority 2019, dated 2022).
Like-named read-outs stand apart in the source and are kept apart here.

Target: recombinant eIF4E (Homo sapiens (Human), UniProt P06730)
Assay: Fluorescence polarization competition assay for eIF4E binding potency
Outline: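 Competition of test compound against 20 nM EDA-m^7GDP-ATTO-550 for 75 nM recombinant eIF4E, pre-incubated 5 min, in 20 mM Tris pH 7.5, 100 mM NaCl, 1 mM DTT, 0.02% Tween-20, 1% DMSO. Equilibrated 30 min at room temperature, dark; fluorescence polarization read. IC50 from 8-point, 3-fold dilution series.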

[1] = fluorescence polarization competition, 75 nM recombinant eIF4E, 20 nM EDA-m7GDP-ATTO-550, IC50 class, read-out: elF4E FP
[2] = inhibition of eIF4E/EDA-m7GDP-ATTO-550 binding, calculated IC50 values, Table 4B, read-out: IC50

Chain of recombinant eIF4E (P06730 whole entry): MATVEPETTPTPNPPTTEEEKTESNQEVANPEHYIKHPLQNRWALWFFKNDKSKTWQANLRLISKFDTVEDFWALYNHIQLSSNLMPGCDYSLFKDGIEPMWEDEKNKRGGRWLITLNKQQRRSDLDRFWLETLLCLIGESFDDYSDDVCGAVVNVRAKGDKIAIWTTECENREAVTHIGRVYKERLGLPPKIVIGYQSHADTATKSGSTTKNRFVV

Row | IC50 [1] [nM] | IC50 [2] [nM] | SMILES
1 | < 50 | 5.93 | Cc1cc(-c2cc(Cl)ccc2OCCn2c(C)nc3cc(C(F)(F)F)c(OCC(F)F)c(C#N)c3c2=O)c2scc(C(=O)O)c2n1 [compound 1197]
2 | < 50 | 13 | CCc1cc(-c2cc(Cl)ccc2OCCn2c(C)nc3c(Cl)nc(C4CC4)c(C#N)c3c2=O)c2scc(C(=O)O)c2n1 [compound 1198]
3 | < 50 | 18.2 | CCc1cc(-c2cc(Cl)ccc2OCCn2c(C)nc3c(N(C)C)nc(C4CC4)c(C#N)c3c2=O)c2scc(C(=O)O)c2n1 [compound 1199]
4 | < 50 | 14.8 | Cc1cc(-c2cc(Cl)ccc2OCCn2c(C)nc3cc(C(F)(F)F)c(CCN(C)C)c(C#N)c3c2=O)c2sc(C)c(C(=O)O)c2n1 [compound 1200]
5 | < 50 | 22.8 | Cc1cc(-c2cc(Cl)ccc2OCCn2c(C)nc3cc(Cl)c(N4CCN(C(C)(C)C)CC4)c(C#N)c3c2=O)c2sc(C)c(C(=O)O)c2n1 [compound 1201]
6 | < 50 | 9.15 | Cc1cc(-c2cc(Cl)ccc2OCCn2c(C)nc3cnc(N4[C@@H]5C[C@H]4CN(C)C5)c(C#N)c3c2=O)c2sc(C)c(C(=O)O)c2n1 [compound 1203]
7 | < 50 | 32.5 | COC(=O)c1csc2c(-c3cc(Cl)ccc3OCCn3c(C)nc4cc(C(F)(F)F)c(N5CCN(C6CC6)CC5)c(C#N)c4c3=O)ccnc12 [compound 1206]
8 | 50 to 1000 | 121 | Cc1cc(-c2cc(Cl)ccc2OCCn2c(C)nc3cc(C(F)(F)F)c(N4CCN(C)C(C(F)(F)F)C4)c(C#N)c3c2=O)c2sc(C)c(C(=O)O)c2n1 (stereo not drawn) [compound 1207]
9 | < 50 | 48.9 | COc1cc2nc(C)n(CCOc3ccc(Cl)cc3-c3cc(C)nc4c(C(=O)O)c(C)sc34)c(=O)c2c(C#N)c1N1CCN(C)CC1 [compound 1208]
10 | 50 to 1000 | 98 | Cc1cc(-c2cc(Cl)ccc2OCCn2c(C)nc3cc(S(C)(=O)=O)c(N4CCN(C)CC4)cc3c2=O)c2scc(C(=O)O)c2n1 [compound 1209]
11 | < 50 | 48.3 | Cc1sc2c(-c3cc(Cl)ccc3OCCn3c(C)nc4cc(C(F)(F)F)c(N5CCN(C)CC5)cc4c3=O)ccnc2c1C(=O)O [compound 1210]
12 | 50 to 1000 | > 1000 | Cc1cc(-c2cc(Cl)ccc2OCCc2nc3cc(N4CCN(C)CC4)c(C(F)(F)F)cc3nc2C)c2scc(C(=O)O)c2n1 [compound 1211]
13 | < 50 | 44.2 | Cc1nc2cc(C(F)(F)F)c(N3CCN(C)CC3)c(C#N)c2c(=O)n1CC#Cc1ccc(Cl)cc1-c1ccnc2c(C(=O)O)csc12 [compound 1212]
14 | < 50 | 42.7 | Cc1cc(-c2cc(Cl)ccc2C#CCn2c(C)nc3cc(C(F)(F)F)c(N4CCN(C)CC4)c(C#N)c3c2=O)c2scc(C(=O)O)c2n1 [compound 1213]
15 | < 50 | 5.08 | Cc1nc2cc(C(F)(F)F)c(N3CCN(C)CC3)c(C#N)c2c(=O)n1CCOc1ccc(Cl)cc1-c1ccc(F)c2c(C(=O)O)csc12 [compound 1214]
16 | < 50 | 25.7 | CCc1cc(-c2cc(F)c(F)cc2OCCn2c(C)nc3cc(C(F)(F)F)c(N4CCN(C)CC4)c(C#N)c3c2=O)c2scc(C(=O)O)c2n1 [compound 1215]
17 | < 50 | 10.3 | CCc1cc(-c2cc(Cl)ccc2OCCn2c(C)nc3cnc([C@@H]4[C@@H]5CN(C)C[C@@H]54)c(C#N)c3c2=O)c2scc(C(=O)O)c2n1 [compound 1216]
18 | < 50 | 24.2 | Cc1cc(-c2cc(Cl)ccc2OCCn2c(C)nc3c(-c4ccccc4)nc(N4CCN(C)CC4)c(C#N)c3c2=O)c2scc(C(=O)O)c2n1 [compound 1217]
19 | < 50 | 13.1 | Cc1ccc(-c2cc(Cl)ccc2OCCn2c(C)nc3cc(C(F)(F)F)c(N4CCN(C)CC4)c(C#N)c3c2=O)c2scc(C(=O)O)c12 [compound 1218]
20 | < 50 | 3.99 | CCc1cc(-c2cc(Cl)ccc2OCCn2c(C)nc3cnc(N4CCN(C)C5CC54)c(C#N)c3c2=O)c2scc(C(=O)O)c2n1 (stereo not drawn) [compound 1219]
21 | < 50 | 13.1 | CCc1cc(-c2cc(Cl)ccc2OCCn2c(C)nc3cnc(N4CCNC5CC54)c(C#N)c3c2=O)c2scc(C(=O)O)c2n1 (stereo not drawn) [compound 1220]
22 | < 50 | 30 | Cc1nc2cc(C(F)(F)F)c(N3CCN(C)CC3)c(C#N)c2c(=O)n1CCOc1ccc(Cl)cc1-c1ccnc(C(=O)O)c1 [compound 1221]
23 | < 50 | 3.02 | Cc1cc(-c2cc(Cl)ccc2OCCn2c(C)nc3cc(C(F)(F)F)c(N4CCN(C)CC4)c(C#N)c3c2=O)cc(C(=O)O)n1 [compound 1222]
24 | < 50 | 2.79 | CCc1cc(-c2cc(Cl)ccc2OCCn2c(C)nc3cc(C(F)(F)F)c(N4CCN(C)CC4)c(C#N)c3c2=O)cc(C(=O)O)n1 [compound 1223]

Row | IC50 [1] [nM] | IC50 [2] [nM] | SMILES
25 | 50 to 1000 | – | COc1cc(-c2cc(Cl)ccc2OCCn2c(C)nc3cc(C(F)(F)F)c(N4CCN(C)CC4)c(C#N)c3c2=O)cc(C(=O)O)n1 [compound 1224]
26 | < 50 | 3.12 | Cc1nc2cc(C(F)(F)F)c(N3CCN(C)CC3)c(C#N)c2c(=O)n1CCOc1ccc(Cl)cc1-c1cc(C(=O)O)nc(N(C)C)c1 [compound 1225]
27 | < 50 | 6.63 | Cc1cc(-c2cc(Cl)ccc2OCCn2c(C)nc3cc(C(F)(F)F)c(N4CCN(C)CC4)c(C#N)c3c2=O)c(C)c(C(=O)O)n1 [compound 1226]
28 | < 50 | 12.8 | Cc1cc(-c2cc(Cl)ccc2OCCn2c(C)nc3cnc(-c4ccc(C)c(O)c4)c(C#N)c3c2=O)c2scc(C(=O)O)c2n1 [compound 1227]
29 | < 50 | 1.11 | Cc1nc2cc(C(F)(F)F)c(N3CCN(C)CC3)c(C#N)c2c(=O)n1CCOc1ccc(Cl)cc1-c1ccnc2c(-c3nn[nH]n3)csc12 [compound 1228]
30 | < 50 | 10.7 | Cc1nc2cnc(N(C)[C@H]3CC[C@H](N(C)CCF)CC3)c(C#N)c2c(=O)n1CC#Cc1ccc(Cl)cc1-c1ccnc2c(C(=O)O)csc12 [compound 1229]
31 | < 50 | 10.3 | Cc1nc2cc(C(F)(F)F)c(N3CCN(C)CC3)cc2c(=O)n1CCOc1ccc(Cl)cc1-c1ccnc2c(C(=O)O)csc12 [compound 1230]
32 | < 50 | 30.2 | COC1CCN(c2ncc3nc(C)n(CCOc4ccc(Cl)cc4-c4cc(C)nc5c(C(=O)O)csc45)c(=O)c3c2C#N)C1 (stereo not drawn) [compound 1234]
33 | < 50 | 6.32 | CCc1cc(-c2cc(Cl)ccc2OCCn2c(C)nc3cnc(N4CCC(O)C4)c(C#N)c3c2=O)c2scc(C(=O)O)c2n1 (stereo not drawn) [compound 1235]
34 | < 50 | 33.9 | Cc1cc(-c2cc(Cl)ccc2OCCn2c(C)nc3cnc(N4CCC(O)C4)c(C#N)c3c2=O)c2sc(C)c(C(=O)O)c2n1 (stereo not drawn) [compound 1236]
35 | < 50 | 6.68 | Cc1sc2c(-c3cc(Cl)ccc3OCCn3c(C)nc4cc(C(F)(F)F)c(N5CCN(C)CC5)c(C#N)c4c3=O)cc(CF)nc2c1C(=O)O [compound 1237]
36 | < 50 | 18.2 | Cc1nc2cc(C(F)(F)F)c(N3CCN(CC(F)F)CC3)c(C#N)c2c(=O)n1CCOc1ccc(Cl)cc1-c1ccnc2c(C(=O)O)csc12 [compound 1239]
37 | < 50 | 15.5 | Cc1cc2cc(C(F)(F)F)c(N3CCN(C)CC3)c(C#N)c2c(=O)n1CCOc1ccc(Cl)cc1-c1ccnc2c(C(=O)O)csc12 [compound 1240]
38 | < 50 | 17.3 | Cc1nc2cc(C(F)(F)F)c(N3CCN(C4COC4)CC3)c(C#N)c2c(=O)n1CCOc1ccc(Cl)cc1-c1ccnc2c(C(=O)O)csc12 [compound 1241]
39 | < 50 | 8.85 | Cc1cc(-c2cc(Cl)ccc2OCCn2c(C)nc3cc(C(F)(F)F)c(N4CCN(C5COC5)CC4)c(C#N)c3c2=O)c2scc(C(=O)O)c2n1 [compound 1242]
40 | < 50 | 5.55 | COCCN1CCN(c2c(C(F)(F)F)cc3nc(C)n(CCOc4ccc(Cl)cc4-c4ccnc5c(C(=O)O)csc45)c(=O)c3c2C#N)CC1 [compound 1243]
41 | < 50 | 19.4 | C#Cc1cc2nccc(-c3cc(Cl)ccc3OCCn3c(C)nc4cc(C(F)(F)F)c(N5CCN(C)CC5)c(C#N)c4c3=O)c2s1 [compound 1244]
42 | < 50 | 15.6 | Cc1nc2cc(C(F)(F)F)c(N3CCN(C)CC3)c(C#N)c2c(=O)n1CCOc1ccc(Cl)cc1-c1ccnc2cc(C#N)sc12 [compound 1245]
43 | 50 to 1000 | 106 | Cc1nc2cc(C(F)(F)F)c(N3CCN(C)CC3)c(C#N)c2c(=O)n1CCOc1ccc(Cl)cc1-c1ccnc2cc(Cl)sc12 [compound 1246]
44 | < 50 | 35.5 | Cc1nc2cc(C(F)(F)F)c(N3CCN(C)CC3)c(C#N)c2c(=O)n1CCOc1ccc(Cl)cc1-c1ccnc2c(Cl)csc12 [compound 1247]
45 | 50 to 1000 | 60.7 | Cc1cc2nccc(-c3cc(Cl)ccc3OCCn3c(C)nc4cc(C(F)(F)F)c(N5CCN(C)CC5)c(C#N)c4c3=O)c2s1 [compound 1248]
46 | 50 to 1000 | 75.9 | Cc1csc2c(-c3cc(Cl)ccc3OCCn3c(C)nc4cc(C(F)(F)F)c(N5CCN(C)CC5)c(C#N)c4c3=O)ccnc12 [compound 1249]
47 | 50 to 1000 | 75.8 | Cc1nc2cc(C(F)(F)F)c(N3CCN(C)CC3)c(C#N)c2c(=O)n1CCOc1ccc(Cl)cc1-c1ncnc2ccsc12 [compound 1250]
48 | – | 4.77 | Cc1nc2cc(C(F)(F)F)c(N3CCN(C)CC3)c(C#N)c2c(=O)n1CCOc1ccc(Cl)cc1-c1ccnc2cnsc12 [compound 1251]

Row | SMILES | IC50 [1] [nM] | IC50 [2] [nM]
49 | Cc1cc(-c2cc(Cl)ccc2OCCn2c(C)nc3cnc(N4C[C@H]5C[C@@H](C4)N5C)c(C#N)c3c2=O)c2sc(C)c(C(=O)O)c2n1 [compound 1202] | < 50 | 19.7
